Results on two compounds are retold here after patent EP1063992B1, “SULFURPENTA FLUOROPHENYL PYRAZOLES FOR CONTROLLING ECTOPARASITIC INFESTATIONS” (MERCK & CO., INC., priority 1998, dated 1999).

One series has as its system fleas and ticks. The note with it: topical application; cited from earlier work.
For series [1] the following is noted: administered systemically, animals; cited from earlier work.
Series [2] is described as follows: Observation for emesis (vomition) in treated dogs. The series is classed as in vivo, Beagle dogs. The settings on record: 10 mg/kg subcutaneously. The protocol:
(§1) Beagle dogs of both sexes 21 to 31 months old and weighing from 10 to 16 kg were used. Groups of three dogs each were treated with the same active compound in different formulations as follows: • Group 1: topical formulation containing 10% w/v of active compound, 5% w/v polyvinylpyrrolidone 30 and ethanol qs to 100%v/v dosed at 5 mg/kg. • Group 2: long acting parenteral formulation containing 10% w/v of the active compound, 25% w/v of sucrose octaacetate, 1% w/v of propylene glycol octanoate decanoate and triacetin qs 100% v/v dosed subcutaneously at 10 mg/kg. • Group 3: long acting parenteral formulation containing 10% w/v active compound, 10% w/v poly(DL-lactide/glycolide)75/25, and qs 100% v/v 1:1 glycerol formal/triacetin dosed at 10 mg/kg subcutaneously. • Control group of three untreated dogs was included.
(§2) Blood samples were collected from animals in treatment groups on Day 0 at 1, 2, 3 and 6 hours after treatment, on Day 1 at 24 hours after treatment, and whenever emesis was observed. Blood samples were also collected when flea counts were determined. Animals were observed hourly for 6 hours post treatment for emesis.

A further series has as its system fleas. Kind of series: Activity against fleas in dogs (infestation with about 100 fleas, comb counts about 48 hours later). The series is classed as in vivo. Here is the method: as §1
Treatments were administered once on Day 0. On Day 1 animals all animals were infested with approximately 100 fleas. Animals were combed and fleas counted and removed approximately 48 hours after infestation. Animals were infested on days 12 and 26, and combed and fleas counted and removed approximately 48 hours after infestation. Infestation/counting were repeated approximately monthly until efficacy fell below 80% [% efficacy = (1 - (mean flea count of treatment group ö mean flea count of control group) x 100).

The nature of series [3]: Plasma drug level in treated dogs. The series is classed as in vivo, Beagle dogs. The settings on record: dog, sc, group 2: sucrose octaacetate/triacetin formulation, 10 mg/kg subcutaneously, read-out: peak plasma levels. The protocol: as §1, §2

The structures appear in SMILES notation. Where two headings read alike, the source gives them in different places.

Consider `N#Cc1nn(-c2c(Cl)cc(C(F)(F)F)cc2Cl)c(N)c1[S+]([O-])C(F)(F)F` (stereo not drawn) [Fipronil, fipronil], for which the duration of efficacy result in the series on fleas and ticks was “not more than three months”. Also, in series [1], the vomition result is recorded as “known to cause vomition”.

With `N#Cc1nn(-c2c(Cl)cc(S(F)(F)(F)(F)F)cc2Cl)c(N)c1SC(F)(F)F` [active compound], the vomition result in series [2] (group 2: sucrose octaacetate/triacetin formulation) was “Vomition occurred”; in series [2] (group 3: poly(DL-lactide/glycolide) formulation), “No vomition was observed”. The efficacy against fleas in the series on fleas (group 1: topical formulation, 10% w/v active compound, 5 mg/kg once on Day 0, dogs, held for between 55 and 90 days) is recorded as over 90%; with fleas (group 2: long acting parenteral formulation (sucrose octaacetate/triacetin), 10 mg/kg subcutaneously once, dogs, maintained for up to between 5 and 6 months), over 90%; in the series with fleas (group 3: long acting parenteral formulation (poly(DL-lactide/glycolide)75/25, 1:1 glycerol formal/triacetin), 10 mg/kg subcutaneously once, dogs, for >12 months) it was about 100%. Also, the “duration of close to 100% efficacy against fleas” value in the series on fleas (group 3: long acting parenteral formulation (poly(DL-lactide/glycolide)75/25, 1:1 glycerol formal/triacetin), 10 mg/kg subcutaneously once, dogs) is reported as over 12 months. Also, the Cmax in series [3] was over 100 ng/mL.
